# Data reported in US20220000880A1, “METHOD AND COMPOSITION EMBODIMENTS FOR TREATING ACUTE MYELOID LEUKEMIA” (Rigel Pharmaceuticals, Inc., priority 2018, published 2022).
# Key:
# [1] = tested on: AML samples expressing high levels of HOXA9 and MEIS1; assay: apoptosis measurement (Annexin V) in AML samples; format: cell-based, human; conditions: 1 μM, 5 μM and 10 μM for 24 hours; alone or in combination
# Protocol: Isolation of bone marrow mononuclear cells from human bone marrow aspirates can be achieved by Ficoll density centrifugation (400×g, RT, 45 min). CD34+ bone marrow mononuclear cells can be isolated using the human CD34 MultiSort Kit (Miltenyi Biotec). […] The cells can be passed through a mesh to remove cell clumps and can then be incubated in MACS buffer, which can be supplemented with FcR Blocking Reagent, and CD34 MultiSort MicroBeads for a particular time and at a particular temperature (e.g., 30 minutes at 4° C.). Excess beads are removed by washing and then magnetic separation using LS columns is carried out. After elution, cells are washed once in MACS buffer and can be resuspended in SFEM supplemented with diverse cytokines. Flow cytometry can be used to assess the purity of the isolated cells. […] The Annexin V Apoptosis Detection Kit I (BD Bioscience) can be used to detect apoptotic cell death. Cells are harvested and washed once with PBS, and can be resuspended in Annexin V binding buffer (200 μl 1×) containing 5 μl Annexin-PE or Annexin-APC and incubated at room temperature in the dark. After washing (e.g., once with 1× Annexin binding buffer), cells are resuspended in 1× Annexin V binding buffer containing 7-AAD (5 μl) and incubated at room temperature in the dark. 1× Annexin V binding buffer (200 μl) is added and cells are analysed using a BD LSRFortessa flow cytometer.
# HOXA9/MEIS1 cells = assay: time-lapse microscopy and single-cell tracking of cell fate; format: cell-based
# Description: The effect of Syk inhibition in HOXA9 and HOXA9/MEIS1 cells by monitoring the fate of individual cells and their progeny by time-lapse microscopy and single-cell tracking also can be carried out.
# AML cell lines = assay: cytotoxicity by Annexin V/PI staining against a panel of AML cell lines; format: cell-based; parameters: cytotoxic activity, agent alone: dose or concentration left out as unconfirmed
# Protocol: In this example, the ability of 6-((5-fluoro-2-((3,4,5-trimethoxyphenyl)amino)pyrimidin-4-yl)amino)-2,2-dimethyl-2H-pyrido[3,2-b][1,4]oxazin-3(4H)-one (or a prodrug thereof) to synergistically enhance cytotoxic activity of venetoclax in AML cell lines is evaluated. Cytotoxic effects of venetoclax can be determined using Annexin V/PI staining against a panel of different AML cell lines.
# AML cell line xenograft = assay: mouse model xenografted with an AML cell line, tumor growth; format: in vivo; conditions: intraperitoneal injections; subcutaneous tumors ≥250 mm^3
# Description: The activity of 6-((5-fluoro-2-((3,4,5-trimethoxyphenyl)amino)pyrimidin-4-yl)amino)-2,2-dimethyl-2H-pyrido[3,2-b][1,4]oxazin-3(4H)-one (or a prodrug thereof), alone, also can be evaluated. To do so, activity of 6-((5-fluoro-2-((3,4,5-trimethoxyphenyl)amino)pyrimidin-4-yl)amino)-2,2-dimethyl-2H-pyrido[3,2-b][1,4]oxazin-3(4H)-one can be tested in the appropriate mouse model xenografted with an AML cell line. Tumors can be injected subcutaneously (e.g., in the right flank) and allowed to grow until they reached an appropriate size (e.g., ≥250 mm^3). Intraperitoneal injections can be used to introduce the treatment. […] In some examples, significant differences in tumor volume between mice receiving 6-((5-fluoro-2-((3,4,5-trimethoxyphenyl)amino)pyrimidin-4-yl)amino)-2,2-dimethyl-2H-pyrido[3,2-b][1,4]oxazin-3(4H)-one alone and mice receiving 6-((5-fluoro-2-((3,4,5-trimethoxyphenyl)amino)pyrimidin-4-yl)amino)-2,2-dimethyl-2H-pyrido[3,2-b][1,4]oxazin-3(4H)-one in combination with venetoclax can be observed.
# [2] = tested on: mice transplanted with HOXA9/MEIS1 cells; assay: mice transplanted with HOXA9/MEIS1 cells treated with fostamatinib-impregnated feed; format: in vivo, mouse; conditions: feed at 3 g/kg, 5 g/kg or 8 g/kg
# Protocol: In this example, mice transplanted with HOXA9 MEIS1 or HOXA9 cells are treated with fostamatinib using feed impregnated with fostamatinib at 3 g/kg, 5 g/kg or 8 g/kg (AIN-76A rodent diet).
compound,measurement,setting,value
"COc1cc(Nc2ncc(F)c(Nc3ccc4c(n3)NC(=O)C(C)(C)O4)n2)cc(OC)c1OC [6-((5-fluoro-2-((3,4,5-trimethoxyphenyl)amino)pyrimidin-4-yl)amino)-2,2-dimethyl-2H-pyrido[3,2-b][1,4]oxazin-3(4H)-one]",sensitivity of AML samples with high HOXA9 and MEIS1 compared with samples with weak MEIS1 expression,[1],more sensitive
same,cell death compared with cells treated with DMSO,HOXA9/MEIS1 cells,significant increase
same,effect on cytotoxic activity of venetoclax,AML cell lines; cells treated at different concentrations for e.g. 2 hours,markedly increase the cytotoxic activity of venetoclax
same,cytotoxic effects on its own,AML cell lines; compound (or prodrug) alone,absence of any substantial cytotoxic effects
same,"tumor growth, compound alone",AML cell line xenograft,partially inhibit tumor growth
"COc1cc(Nc2ncc(F)c(Nc3ccc4c(n3)N(COP(=O)(O)O)C(=O)C(C)(C)O4)n2)cc(OC)c1OC [fostamatinib, 6-((5-fluoro-2-((3,4,5-trimethoxyphenyl)amino)pyrimidin-4-yl)amino)-2,2-dimethyl-3-oxo-2,3-dihydro-4H-pyrido[3,2-b][1,4]oxazin-4-yl)methyl dihydrogen phosphate]",survival of mice,"[2]; longer treatment (e.g., 20 days)",significantly prolong the survival
same,percentage of leukemic cells,[2]; one week of treatment,reduce the percentage of leukemic cells
"CC1(C)CCC(CN2CCN(c3ccc(C(=O)NS(=O)(=O)c4ccc(NCC5CCOCC5)c([N+](=O)[O-])c4)c(Oc4cnc5[nH]ccc5c4)c3)CC2)=C(c2ccc(Cl)cc2)C1 [venetoclax, reference compound]","cytotoxic activity, agent alone","AML cell lines; venetoclax alone, concentrations ranging",only modest activity
